# In patent publication US20200318189A1 (CHANG GUNG MEMORIAL HOSPITAL, LINKOU, priority 2017, published 2020):
# Key:
# [1] = system: HLA-A*0207 and HLA-B*1502 alleles
smiles,measurement,setting,value
"Nc1nnc(-c2cccc(Cl)c2Cl)c(N)n1 [lamotrigine, Lamotrigine]",Sensitivity (%),HLA-A*0207 allele,42.31%
same,Specificity (%),HLA-A*0207 allele,83.18%
same,Sensitivity (%),HLA-B*1502 allele,26.92%
same,Specificity (%),HLA-B*1502 allele,90.33%
same,Sensitivity (%),[1],61.54%
same,Specificity (%),[1],73.51%
